The text below walks through data of a flash point compilation (Sun et al. 2020).

`Cc1ccc(C)c(C)c1C` [1,2,3,4-Tetramethylbenzene]: the flash point was determined as 74.0 °C.
With `Cc1cccc(C)c1C` [1,2,3-TRIMETHYLBENZENE], the flash point was found to be 44.0 °C.
Regarding `Cc1cccc(C)c1C` [1,2,3-Trimethylbenzene], the flash point is 51.0 °C.
Same read-out and setting: next, `Cc1cc(C)c(C)cc1C` [1,2,4,5-TETRAMETHYLBENZENE]: 55 °C; `Cc1cc(C)c(C)cc1C` [1,2,4,5-Tetramethylbenzene]: 73.0 °C; `COCC(C)OC` (stereo unspecified) [1,2-DIMETHOXYPROPANE]: 0.6 °C.
In turn, `COCC(C)OC` (stereo unspecified) [1,2-Dimethoxypropane] registered a flash point of -0.0 °C.
Compound `NCCCN` [1,3-Diaminopropane] had a flash point of 49.0 °C.
`CCc1cccc(CC)c1` [1,3-Diethylbenzene] showed a flash point of 56 °C.
Still for that read-out and setting: next, `C=CC(C)C` [1-Butene, 3-methyl-]: -55.9 °C.
On the same count and under the same terms, next, `CCCCOCC(C)O` (stereo unspecified) [1-Butoxy-2-propanol]: 59.0 °C; `C=CCCCCCCCCCCCCCC` [1-HEXADECENE]: 132.0 °C.
Take `CCCCCC=O` [1-HEXANAL]: the flash point amounted to 27 °C.
In turn, `C=C(C)CCCC` [1-Hexene, 2-methyl-] registered a flash point of -6.0 °C.
As to `C=CC(C)CCC` (stereo unspecified) [1-Hexene, 3-methyl-], the flash point was -6.0 °C.
The same measure, in the same setting: next, `C=CCCCCCCC` [1-NONENE]: 22 °C; `C=CCCCCCCC` [1-Nonene]: 26.0 °C; `CCCCCCCCO` [1-OCTANOL]: 84 °C.
On to `C=CCCCCCC` [1-OCTENE], for which the flash point came out at 8 °C.
In turn, `C=CCCCCCCCCCCCCCCCC` [1-Octadecene] registered a flash point of 148.0 °C.
With `CCCCCCCCO` [1-Octanol], the flash point worked out at 86.6 °C.
Regarding `C=CCCCCCC` [1-Octene], the flash point came to 11.5 °C.
On to `CCCO` [1-PROPANOL], for which the flash point stood at 18 °C.
For the compound `CCC(C)CCO` (stereo unspecified) [1-Pentanol, 3-methyl-], the flash point was 58.0 °C.
Same read-out and setting: next, `CCCCCCc1ccccc1` [1-Phenylhexane]: 83.0 °C.
In turn, `CCCCCCCCCCCCCCO` [1-TETRADECANOL] yielded a flash point of 143 °C.
On the same count and under the same terms, next, `CCCCCCCCCCCCCCO` [1-Tetradecanol]: 148.0 °C; `Cc1cccc(O)c1C` [2,3-Dimethylphenol]: 95.0 °C.
The compound `CC(C)=C(C)C` [2-Butene, 2,3-dimethyl-] yielded a flash point of -16.0 °C.
`CC(C)Cl` [2-Chloropropane] had a flash point of -34.9 °C.
The compound `CCC(CC)CO` [2-ETHYL-1-BUTANOL] showed a flash point of 57 °C.
In turn, `CCCCCC(C)O` (stereo unspecified) [2-Heptanol] returned a flash point of 59.0 °C.
In turn, `CC(=O)CCC(C)C` [2-Hexanone, 5-methyl-] came in with a flash point of 35.0 °C.
On to `CCCCC(C)=O` [2-Hexanone], for which the flash point came out at 23.0 °C.
`CCCCCCCC(C)=O` [2-NONANONE] returned a flash point of 64.0 °C.
For `CCCCCCCC(C)=O` [2-Nonanone], the flash point was 72.4 °C.
Still for that read-out and setting: next, `CCCCCCC(C)=O` [2-OCTANONE]: 51.0 °C; `CCCCCCC(C)O` (stereo unspecified) [2-Octanol]: 71.0 °C; `CCCCCCC(C)=O` [2-Octanone]: 56.0 °C.
The same measure, in the same setting: next, `CCCC(C)O` (stereo unspecified) [2-Pentanol]: 34.0 °C; `CCC(C)C(C)=O` (stereo unspecified) [2-Pentanone, 3-methyl-]: 12.0 °C.
Compound `CCC(C)CC(C)(C)CC` (stereo unspecified) [3,3,5-TRIMETHYLHEPTANE] registered a flash point of 28 °C.
Regarding `CCC(C)CC(C)(C)CC` (stereo unspecified) [3,3,5-Trimethylheptane], the flash point came out at 31 °C.
`CCCCC(=O)CC` [3-Heptanone] showed a flash point of 37.0 °C.
In the case of `CC(=O)C(C)C` [3-Methyl-2-butanone], the flash point was -1.0 °C.
In turn, `CCCCCCC(=O)CC` [3-Nonanone] gave a flash point of 66.0 °C.
Consider `CCC(=O)C(C)C` [3-Pentanone, 2-methyl-], for which the flash point amounted to 13.0 °C.
Same read-out and setting: next, `CCC(=O)CC` [3-Pentanone]: 7.0 °C; `CCCC(=O)CCC` [4-HEPTANONE]: 48.0 °C.
For `CCCC(=O)CCC` [4-Heptanone], the flash point is 34.0 °C.
In turn, `CCCCC(=O)CCCC` [5-Nonanone] came in with a flash point of 65.0 °C.
The same measure, in the same setting: next, `C=CCOC(C)=O` [ALLYL ACETATE]: 22.2 °C; `CCCCCCCCOC(C)=O` [Acetic acid octyl ester]: 83.0 °C.
For `C=CCOC(C)=O` [Allyl acetate], the flash point came to 10 °C.
`CCCCCCCc1ccccc1` [Benzene, heptyl-] registered a flash point of 97.5 °C.
`CCCCCc1ccccc1` [Benzene, pentyl-]: the flash point is 66.0 °C.
Still for that read-out and setting: next, `CCCC#N` [Butanenitrile]: 18.0 °C; `CCCCOC(=O)CCC` [Butanoic acid, butyl ester]: 50.0 °C.
The same measure, in the same setting: next, `CCCCOC(C)=O` [Butyl acetate]: 25.0 °C; `CCCC=O` [Butyraldehyde]: -11.0 °C.
Turning to `CCCC(=O)O` [Butyric acid], the flash point was determined as 72.0 °C.
`NC1CCCCC1` [Cyclohexanamine] returned a flash point of 26.5 °C.
`C[C@H]1CC[C@@H](C)CC1` [Cyclohexane, 1,4-dimethyl-, cis-] displayed a flash point of 11.2 °C.
`CCC1CCCCC1` [Cyclohexane, ethyl-] returned a flash point of 18.0 °C.
`CCCCCCCCCC` [Decane] registered a flash point of 49.8 °C.
For `CCCCCCCCCCO` [Decyl alcohol], the flash point came out at 104.0 °C.
In the case of `c1ccc(Oc2ccccc2)cc1` [Diphenyl ether], the flash point was 115.0 °C.
Still for that read-out and setting: next, `CC(Cl)Cl` [Ethane, 1,1-dichloro-]: -10.0 °C; `CCOC(C)OCC` [Ethane, 1,1-diethoxy-]: 13.0 °C.
For the compound `CCCCCC(C)(C)C` [Heptane, 2,2-dimethyl-], the flash point came to 19.0 °C.
Regarding `CCCCC(C)CC` (stereo unspecified) [Heptane, 3-methyl-], the flash point worked out at 6.0 °C.
Turning to `CCCC(C)CCC` [Heptane, 4-methyl-], the flash point was 6.0 °C.
Take `CCCCCCCCCCCCCCCC` [Hexadecane]: the flash point came to 134.0 °C.
In turn, `CCC(C)CC(C)C` (stereo unspecified) [Hexane, 2,4-dimethyl-] returned a flash point of 3.0 °C.
On the same count and under the same terms, next, `CC(C)CCC(C)C` [Hexane, 2,5-dimethyl-]: 2.0 °C.
The same measure, in the same setting: next, `CCC(C)C(C)CC` (stereo unspecified) [Hexane, 3,4-dimethyl-]: 7.5 °C.
In the case of `C=CC(=O)OCC(C)C` [Isobutyl acrylate], the flash point was determined as 31.2 °C.
For the compound `CCCCCCCCCCCC(=O)O` [Lauric acid], the flash point was 164 °C.
For the compound `COC(C)=O` [METHYL ACETATE], the flash point is -10.0 °C.
Consider `Cc1cc(C)cc(C)c1` [Mesitylene], for which the flash point was 44.5 °C.
`CCCCCCCCCOC(C)=O` [NONYL ACETATE] came in with a flash point of 99.0 °C.
In turn, `CCCCCCCCCCCCCCCCCCC` [Nonadecane] had a flash point of 168 °C.
On to `CCCCCCCC(C)C` [Nonane, 2-methyl-], for which the flash point was 41 °C.
Consider `CC(C)CCCCC(C)C` [Octane, 2,7-dimethyl-], for which the flash point is 37.8 °C.
For the compound `CCCCCCC(C)C` [Octane, 2-methyl-], the flash point was 26.0 °C.
Turning to `CCCCCC(C)CC` (stereo unspecified) [Octane, 3-methyl-], the flash point was 25.5 °C.
Take `O=C(O)CCCCCC(=O)O` [PIMELIC acid]: the flash point came out at 215 °C.
Consider `CCCCCCl` [Pentane, 1-chloro-], for which the flash point was 11.0 °C.
Same read-out and setting: next, `CCC(C)(C)C(C)(C)C` [Pentane, 2,2,3,3-tetramethyl-]: 21.5 °C; `CCC(CC)(CC)CC` [Pentane, 3,3-diethyl-]: 21 °C.
Still for that read-out and setting: next, `Cc1cccc(O)c1` [Phenol, 3-methyl-]: 86.0 °C; `O=C(O)CCCCCC(=O)O` [Pimelic acid]: 150.0 °C; `CC(=O)C(C)(C)C` [Pinacolone]: 9.0 °C.
`CCC#N` [Propanenitrile] came in with a flash point of 6.0 °C.
Regarding `CCC=O` [Propionaldehyde], the flash point was -29.9 °C.
The compound `Cc1cccc(C)n1` [Pyridine, 2,6-dimethyl-] had a flash point of 33 °C.
For the compound `Cc1cccnc1` [Pyridine, 3-methyl-], the flash point was 36.0 °C.
`CCCCCCCCCCC=O` [Undecanal] gave a flash point of 96.0 °C.
Turning to `CCCCC(=O)O` [Valeric acid], the flash point was found to be 86.0 °C.
Compound `C=COCCCC` [n-Butylvinylether] showed a flash point of -1 °C.
As for `CCCCCC` [n-HEXANE], the flash point was -21.6 °C.
In turn, `c1ccc(-c2ccc(-c3ccccc3)cc2)cc1` [p-Terphenyl] displayed a flash point of 207 °C.
On the same count and under the same terms, next, `CCC(C)O` (stereo unspecified) [sec-Butanol]: 23.0 °C.

The source holds these as a separate data set.
`C[Si](C)(Cl)O[Si](C)(C)Cl` [1,3-Dichlorotetramethyldisiloxane] showed a flash point of 15.00 °C.
`C=C[Si](C)(C)N[Si](C)(C)C=C` [1,3-Divinyltetramethyldisilazane] came in with a flash point of 34.00 °C.
As to `CCCCC=C[Si](Cl)(Cl)Cl` [1-Hexenyltrichlorosilane], the flash point is 60.00 °C.
`CC#C[Si](C)(C)C` [1-Trimethylsilylpropyne] had a flash point of -3.00 °C.

The source holds these as a separate data set.
`CCCCCCC(C)O` (stereo unspecified) [2-Octanol] had a flash point of 88.00 °C.
Compound `CCCC(C)O` (stereo unspecified) [2-Pentanol] registered a flash point of 39.00 °C.
On the same count and under the same terms, next, `C=CCOC(C)=O` [Allyl acetate]: 21.00 °C; `CCCCC(=O)O` [Valeric acid]: 96.00 °C.
